# According to US20060128628A1, “Human tissue antigen-binding peptides and their amino acid sequences” (priority 2004, published 2006):
# Experiments:
# [1] = tested on: spleen lymphocytes expressing simultaneously CD8+ and IFN-γ+; set-up: species or system C57BL/6 mice transgenic for human tissue antigen 0201; conditions: in vivo
# [2] = target: T1, human tissue antigen 0201 (HLA-A0201) (Homo sapiens, UniProt P04439, D140Y/D185E/D98H/E176V/E277Q/G131W/G231S/I119V/I121R/I166T/I218V/L300P/L318F/N151K/N90K/P208A/P217A/Q86G/Q94H/R138H/R169H/T345S); format: cell-based
# T1 construct: T2 cell line is a cell line lacking of the transporters associated with antigen processing (TAP), TAP1 and TAP2; endogenous in cells; host or cells: T2 cell line (TAP1/TAP2-deficient)
Sequence,induction of antigen-specific cytotoxicity (lymphocytes expressing simultaneously CD8+ and IFN-γ+) [1],induction of cytotoxicity by vaccine containing peptide (proportion of spleen lymphocytes expressing CD8+ and IFN-γ+) [1],"binding to human tissue antigen 0201 on T2 cells (HLA-A2 expression, median fluorescence intensity) [2]",relative binding ability among peptides S1-S10 in the T2 cell binding test [2]
ILPDPLKPT [S6],could induce cytotoxicity,could induce cytotoxicity,could bind to the human tissue antigen 0201,strongest binding ability
NLNESLIDL [S1],–,–,could bind to the human tissue antigen 0201,–
VLNDILSRL [S4],–,–,could bind to the human tissue antigen 0201,–
VLYENQKQI [S5],–,–,could bind to the human tissue antigen 0201,–
VVFLHVTYV [S2],could induce cytotoxicity,could induce cytotoxicity,could bind to the human tissue antigen 0201,strongest binding ability
